Data: PubChem BioAssay AID248 (DTP/NCI, 2004)
“And” between values parts separate entries of the source, which are not always exact repeats. Identical values can stand only once. Toxic doses and inconclusive results are not listed. Cut-off read from the data, not from the text of the source: active = T/C of 150% or more; inactive = T/C below 125%.

Test system: L1210 leukemia ip in BDF1 mice, survival T/C
Experiment: NCI In Vivo Anticancer Drug Screen. Data for tumor model L1210 Leukemia (intraperitoneal) in B6D2F1 (BDF1) mice
Settings: endpoint: mean survival time, higher = longer survival
Procedure, shortened: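 Ratio derived from survival: compound-dosed mice over vehicle-dosed mice, all bearing a transplantable tumor.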

[1] = dose: 100.0 mg/kg/injection, schedule: Q01DX009 (ip), vehicle: Klucel (hydroxypropylcellulose) (HPC)
[2] = dose: 100.0 mg/kg/injection, schedule: Q04DX003 (ip), vehicle: Klucel (hydroxypropylcellulose) (HPC)
[3] = dose: 200.0 mg/kg/injection, schedule: Q01DX009 (ip), vehicle: Klucel (hydroxypropylcellulose) (HPC)
[4] = dose: 200.0 mg/kg/injection, schedule: Q04DX003 (ip), vehicle: Klucel (hydroxypropylcellulose) (HPC)
[5] = dose: 400.0 mg/kg/injection, schedule: Q01DX009 (ip), vehicle: Klucel (hydroxypropylcellulose) (HPC)
[6] = dose: 400.0 mg/kg/injection, schedule: Q04DX003 (ip), vehicle: Klucel (hydroxypropylcellulose) (HPC)
[7] = dose: 100.0 mg/kg/injection, schedule: Q01DX001 (ip), vehicle: Klucel (hydroxypropylcellulose) (HPC)
[8] = dose: 200.0 mg/kg/injection, schedule: Q01DX001 (ip), vehicle: Klucel (hydroxypropylcellulose) (HPC)
[9] = dose: 400.0 mg/kg/injection, schedule: Q01DX001 (ip), vehicle: Klucel (hydroxypropylcellulose) (HPC)
[10] = dose: 100.0 mg/kg/injection, schedule: Q01DX009 (ip), vehicle: saline
[11] = dose: 200.0 mg/kg/injection, schedule: Q01DX009 (ip), vehicle: saline
[12] = dose: 400.0 mg/kg/injection, schedule: Q01DX009 (ip), vehicle: saline
[13] = dose: 100.0 mg/kg/injection, schedule: Q04DX003 (ip), vehicle: saline
[14] = dose: 200.0 mg/kg/injection, schedule: Q04DX003 (ip), vehicle: saline
[15] = dose: 400.0 mg/kg/injection, schedule: Q04DX003 (ip), vehicle: saline

Measured: T/C

NOC(=O)C(O)(c1ccccc1)C1CCCCC1 (configuration not stated)
inactive: dose: 75.0 mg/kg/injection, schedule: Q01DX001 (ip), vehicle: other 104 % of control | dose: 150.0 mg/kg/injection, schedule: Q01DX001 (ip), vehicle: other 98 % of control | dose: 300.0 mg/kg/injection, schedule: Q01DX001 (ip), vehicle: other 98 % of control

CCN=C(c1ccc(NC(=O)c2ccc(C(=O)Nc3ccc(C(=NCC)N(CC)C(=O)OCC)cc3)cc2)cc1)N(CC)C(=O)OCC
inactive: dose: 2.0 mg/kg/injection, schedule: Q01DX015 (ip), vehicle: methylcellulose (MC) 101 % of control | dose: 4.0 mg/kg/injection, schedule: Q01DX015 (ip), vehicle: methylcellulose (MC) 104 % of control | dose: 8.0 mg/kg/injection, schedule: Q01DX015 (ip), vehicle: methylcellulose (MC) 97 % of control | dose: 16.0 mg/kg/injection, schedule: Q01DX015 (ip), vehicle: methylcellulose (MC) 100 % of control | dose: 31.0 mg/kg/injection, schedule: Q01DX015 (ip), vehicle: methylcellulose (MC) 102 % of control | dose: 62.0 mg/kg/injection, schedule: Q01DX015 (ip), vehicle: methylcellulose (MC) 98 % of control | dose: 125.0 mg/kg/injection, schedule: Q01DX015 (ip), vehicle: methylcellulose (MC) 96 % of control | dose: 250.0 mg/kg/injection, schedule: Q01DX015 (ip), vehicle: methylcellulose (MC) 95 % of control | dose: 375.0 mg/kg/injection, schedule: Q01DX015 (ip), vehicle: methylcellulose (MC) 91 % of control | dose: 500.0 mg/kg/injection, schedule: Q01DX015 (ip), vehicle: methylcellulose (MC) 101 % of control

CCCCCCCC(O)CCCCC (configuration not stated)
inactive: [1] 104 % of control | [2] 93 % of control | [3] 98 % of control | [4] 104 % of control | [5] 102 % of control | [6] 89 % of control

CCCCCC#CC(=O)O
inactive: [1] 105 % of control | [2] 98 % of control | [3] 106 % of control | [4] 98 % of control | [5] 90 % of control | [6] 109 % of control

Cc1ccc(S(=O)(=O)OCCS(C)(=O)=O)cc1
inactive: [7] 102 % of control | [1] 103 % of control | [2] 101 % of control | [8] 106 % of control | [3] 101 % of control | [4] 103 % of control | [9] 104 % of control | [5] 101 % of control | [6] 97 % of control

O=C(Nc1ccc(F)c([N+](=O)[O-])c1)N(Cc1ccccc1)c1ccccc1
inactive: [1] 101 % of control | [3] 104 % of control | [5] 98 % of control

O=c1cc(CO)occ1O
inactive: dose: 100.0 mg/kg/injection, schedule: Q01DX009 (ip), vehicle: saline with Tween-80 93 % of control | [10] 92 % of control | dose: 200.0 mg/kg/injection, schedule: Q01DX009 (ip), vehicle: saline with Tween-80 90 % of control | [11] 106 % of control | dose: 400.0 mg/kg/injection, schedule: Q01DX009 (ip), vehicle: saline with Tween-80 92 % of control | [12] 97 % of control

COC(=O)c1cocc1C(=O)N1Cc2cc3ccccc3nc2C1
inactive: [7] 103 % of control | [8] 95 % of control | [9] 94 % of control

C[N+](C)(Cc1ccc(F)cc1)C1c2ccccc2-c2ccccc21
inactive: dose: 6.25 mg/kg/injection, schedule: Q04DX003 (ip), vehicle: saline with Tween-80 90 % of control | dose: 25.0 mg/kg/injection, schedule: Q04DX003 (ip), vehicle: saline with Tween-80 89 % of control

O=C(O)c1ccccc1Oc1ccccc1
inactive: dose: 100.0 mg/kg/injection, schedule: Q01DX001 (ip), vehicle: saline with Tween-80 94 % of control | dose: 200.0 mg/kg/injection, schedule: Q01DX001 (ip), vehicle: saline with Tween-80 91 % of control | dose: 400.0 mg/kg/injection, schedule: Q01DX001 (ip), vehicle: saline with Tween-80 91 % of control

N#CC(c1ccccc1)N1CCOCC1 (configuration not stated)
inactive: [2] 91 % of control | [4] 96 % of control | [6] 95 % of control

O=C(CN1CCCCC1)c1ccc2oc3ccccc3c2c1
inactive: [2] 96 % of control | [4] 96 % of control | [6] 87 % of control

COc1cc(O)c(C(=O)O)c(OC)c1
inactive: dose: 100.0 mg/kg/injection, schedule: Q01DX009 (ip), vehicle: other 103 % of control | [13] 104 % of control | dose: 200.0 mg/kg/injection, schedule: Q01DX009 (ip), vehicle: other 103 % of control | [14] 102 % of control | dose: 400.0 mg/kg/injection, schedule: Q01DX009 (ip), vehicle: other 101 % of control | [15] 98 % of control

O=C(O)CNC(=O)C(CSCc1ccccc1)NC(=O)OCc1ccccc1 (configuration not stated)
inactive: [2] 97 % of control | [6] 86 % of control

CCOC(=O)c1ccc(O)c(NC(C)=O)c1
inactive: [1] 95 % of control | [2] 95 % of control | [3] 94 % of control | [4] 100 % of control | [5] 94 % of control | [6] 91 % of control

CCc1nc2c(OC)ccc(OC)c2[nH]c1=O
inactive: dose: 100.0 mg/kg/injection, schedule: Q04DX003 (ip), vehicle: other 103 % of control | dose: 200.0 mg/kg/injection, schedule: Q04DX003 (ip), vehicle: other 103 % of control | dose: 400.0 mg/kg/injection, schedule: Q04DX003 (ip), vehicle: other 106 % of control

O=C(COc1ccc(Cl)c(Cl)c1)N(Cc1ccccc1)Cc1ccc[n+](Cc2ccc(S(=O)(=O)F)cc2)c1
inactive: dose: 100.0 mg/kg/injection, schedule: Q04DX003 (ip), vehicle: saline with Tween-80 102 % of control | dose: 200.0 mg/kg/injection, schedule: Q04DX003 (ip), vehicle: saline with Tween-80 96 % of control

CC(C)=CCC(O)(c1ccccc1)C(C)CN(C)C (configuration not stated)
inactive: dose: 12.5 mg/kg/injection, schedule: Q01DX009 (ip), vehicle: saline 94 % of control | dose: 12.5 mg/kg/injection, schedule: Q04DX003 (ip), vehicle: saline 94 % of control | dose: 25.0 mg/kg/injection, schedule: Q01DX009 (ip), vehicle: saline 106 % of control and 103 % of control | dose: 25.0 mg/kg/injection, schedule: Q04DX003 (ip), vehicle: saline 94 % of control | dose: 50.0 mg/kg/injection, schedule: Q01DX009 (ip), vehicle: Klucel (hydroxypropylcellulose) (HPC) 100 % of control | dose: 50.0 mg/kg/injection, schedule: Q01DX009 (ip), vehicle: saline 101 % of control and 96 % of control | dose: 50.0 mg/kg/injection, schedule: Q04DX003 (ip), vehicle: saline 118 % of control | [1] 97 % of control | [10] 98 % of control | [3] 95 % of control

CC([NH-])c1ccccc1.[Cl][Pt]([Cl])[Cl] (configuration not stated)
inactive: [10] 97 % of control | [11] 92 % of control | [12] 87 % of control

O=C(Nc1cccc(F)c1)Nc1ccccc1C(F)(F)F
inactive: [1] 97 % of control | [3] 91 % of control | [5] 94 % of control

OC1C2C3CCC(C3)C2C(O)C2C3CCC(C3)C12 (configuration not stated)
inactive: dose: 12.5 mg/kg/injection, schedule: Q01DX009 (ip), vehicle: saline with Tween-80 101 % of control | dose: 25.0 mg/kg/injection, schedule: Q01DX009 (ip), vehicle: saline with Tween-80 101 % of control

CCOC(=O)c1ncc(Cl)cc1NC(=O)CC(=O)Nc1cc(Cl)cnc1C(=O)OCC
inactive: [13] 97 % of control | [14] 91 % of control | [15] 92 % of control
